Where “and” joins values, the source holds several entries; their conditions need not be identical. Equal values may be shown once.
Legend:
CCRF-CEM cells [1] = test: Nucleotides pool measurements; type: cell-based, human; settings: 24 h, dT 200 µM, dC 1 µM, OR0642 1 µM
Protocol: CCRF-CEM cells exposed to compounds (dT (200 µM) and/or dC, OR0642, DI-87 and DI-39 (1 µM)) for 0 and 24 h were washed, counted and pelleted. Pellets were extracted with the cold sampling solution (acetonitrile (4) / methanol (4)/125 mM formic acid (2)), vortexed and placed 1 h at −20 °C. Then centrifuged and evaporated. Central metabolites were separated on an ionic chromatography column IonPac AS11 (250 × 2 mm i.d.; Dionex). Solvent used was KOH at a flow rate of 350 µl/min. The column was then equilibrated for 6 min at the initial conditions before the next sample was analyzed. The volume of injection was 15 µl. High-resolution experiments were performed with an ICS5000+, ion chromatography system (Dionex) system coupled to an Orbitrap Qexactive+ mass spectrometer (Thermo Fisher Scientific, Waltham) equipped with a heated electrospray ionization probe. MS analyses were performed in negative FTMS mode at a resolution of 140,000 (at 400 m/z) in full-scan mode, with the following source parameters: 325 °C for the capillary temperature, 380 °C for the source heater temperature, 50 a.u. (arbitrary unit) for the sheath gas flow rate, 5 a.u. for the auxiliary gas flow rate, 50% for the S-Lens RF level, and 2.75 kV for the source voltage. Metabolites were determined by extracting the exact mass with a tolerance of 5 ppm. Each experiment was performed three times.

CCRF-CEM cells [2] = test: γH2A.X measurements (DNA damage); type: cell-based, human; settings: 24 h, dT 200 µM, others 1 µM, presence of dC
Protocol: CCRF-CEM cells were seeded at 100,000 cells/ml, and treated with DMSO (0.01%) as vehicle control or dT (200 μΜ), and/or dC, OR0642, DI-87 and DI-39 (1 μΜ). For cell cycle analysis, cells were harvested after 24 h, fixed in 4% paraformaldehyde, permeabilized with 0.15% Triton X100, and DNA content was determined using 1 μg/ml DAPI. For apoptosis assay, cells were harvested after 72 h and cell death was assayed using Annexin V-APC and 7AAD following manufacturer’s instructions (Biolegend, 640930). For γH2A.X measurements, cells were harvested after 24 h, fixed in 4% paraformaldehyde and permeabilized with 0.15% Triton X100. Then, cells were stained with the phospho-H2AX (pS139 H2AX, Biolegend, 613402, 1:1000) specific primary antibody, Alexa-Fluor 488 secondary antibody (ThermoFisher, A21202, 1:1000) and DAPI. All acquisitions were performed on a BD Fortessa cytometer, and analysis of flow cytometry data was performed using FlowJo™ Software 10.7.1 (BD Life Sciences). Each experiment was performed three times. Figures exemplifying the gating strategy are provided in the Supplementary Information (Supplementary Figs. 29–31).
Cells were seeded, treated and stained as described for flow cytometry analysis, and then spread on a microscope slide using cytospin. Slides were mounted with […] mounting medium with DAPI (Vector Laboratories). […]

[3] = tested on: human CCRF-CEM T-ALL cell line expressing luciferase; test: Systemic leukemia model: NSG mice inoculated intravenously with luciferase CCRF-CEM cells; type: in vivo, mouse; parameters: hCD45+ populations determined by flux cytometry at day 21 of CCRF-CEM bearing mice / Whole body radiance of CCRF-CEM bearing mice: unit not given here; settings: for effect on leukemic progression: dT 1.5 g/kg, OR0642 40 mg/kg IP; for Whole body radiance of CCRF-CEM bearing mice / hCD45+ populations determined by flux cytometry at day 21 of CCRF-CEM bearing mice / Whole body radiance at day 21 of CCRF-CEM bearing mice / Survival days of CCRF-CEM bearing mice: dT 1,5 g/Kg, OR0642 40 mg/Kg; for hCD45+ populations determined by flux cytometry at day 21 of CCRF-CEM bearing mice: day 21, blood; for Whole body radiance at day 21 of CCRF-CEM bearing mice: day 21, individual mice (Figure 4d);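 on hCD45+ populations determined by flux cytometry at day 21 of CCRF-CEM bearing mice: Bead-counted human ALL blasts per volume of peripheral blood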
human c-KIT = molecular target: T1, human c-KIT (Homo sapiens, UniProt P10721); test: c-KIT cellular assay: Ba/F3 proliferation with SCF, without IL3; type: cell-based; settings: for Cell proliferation of the IL-3 dependent Ba/F3 cell line Mean (% prolif): SCF, no IL3, 48 h; for IC50 ratio of IL3/SCF (unspecific/c-KIT): Ba/F3 expressing WT human c-KIT, 72 h
T1 construct: expressed in transfected cells; host or cells: Ba/F3 (murine IL3-dependent pro-B cell line)
Protocol: The generation of Ba/F3 cells expressing wild-type human c-KIT has been previously described by us[55],[56]. For the assay of Ba/F3 cell proliferation, plates were seeded with a total of 10,000 cells per well. Cells were supplemented, or not, with either 0.1% IL3 or 250 ng/ml murine SCF. IL3 was obtained from conditioned medium from X63-omIL-3 cells (obtained from Fritz Melchers laboratory (Berlin, Germany)) and murine SCF, which activates c-KIT, was purified from the conditioned medium of SCF-producing CHO cells. Cells were supplemented with compounds at varying concentrations (final 0.1% DMSO). […] The amount of reduced dye formed by metabolically active cells was quantified by its fluorescence measured at 560 nm (excitation) and 590 nm (emission) in a microplate reader (FLUOstar Omega, BMG Labtech). A blank well without cells was used as a background control. Each experiment was performed at least three times (with technical triplicates) and data are presented as the mean ± SD.

T1 sequence (P10721 26-976): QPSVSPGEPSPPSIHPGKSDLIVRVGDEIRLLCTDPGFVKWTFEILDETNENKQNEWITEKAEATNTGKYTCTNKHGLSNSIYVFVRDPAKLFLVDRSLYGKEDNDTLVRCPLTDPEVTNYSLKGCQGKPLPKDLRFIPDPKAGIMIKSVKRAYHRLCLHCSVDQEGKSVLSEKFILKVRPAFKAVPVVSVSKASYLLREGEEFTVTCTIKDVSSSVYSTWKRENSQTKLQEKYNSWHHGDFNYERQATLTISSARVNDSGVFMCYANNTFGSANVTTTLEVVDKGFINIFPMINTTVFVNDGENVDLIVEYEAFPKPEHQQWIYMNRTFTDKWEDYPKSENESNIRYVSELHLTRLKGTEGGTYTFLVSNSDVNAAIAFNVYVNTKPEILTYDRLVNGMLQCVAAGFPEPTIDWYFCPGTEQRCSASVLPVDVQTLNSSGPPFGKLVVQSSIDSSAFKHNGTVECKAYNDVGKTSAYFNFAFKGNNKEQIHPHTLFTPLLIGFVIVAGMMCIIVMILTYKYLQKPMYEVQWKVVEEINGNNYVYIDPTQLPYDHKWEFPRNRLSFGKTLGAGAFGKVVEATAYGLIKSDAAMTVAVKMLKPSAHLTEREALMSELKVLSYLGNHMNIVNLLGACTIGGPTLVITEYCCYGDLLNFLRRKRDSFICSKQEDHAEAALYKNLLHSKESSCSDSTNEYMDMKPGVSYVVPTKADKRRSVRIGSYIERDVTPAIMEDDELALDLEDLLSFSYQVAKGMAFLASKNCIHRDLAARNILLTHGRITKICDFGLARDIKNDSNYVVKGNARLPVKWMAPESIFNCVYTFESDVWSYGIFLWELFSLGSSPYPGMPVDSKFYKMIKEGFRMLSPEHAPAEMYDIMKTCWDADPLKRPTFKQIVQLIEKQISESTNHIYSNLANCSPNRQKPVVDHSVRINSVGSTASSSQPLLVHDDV

CCCN(c1nc(-c2nc(N)cc(N)n2)cs1)c1cc(-c2ccc(S(=O)(=O)N3CCN(C)CC3)cc2C(F)(F)F)ccc1C [OR0642]
effect on nucleotide pools (CCRF-CEM cells [1]): did not affect the nucleotide pools
DNA damage, γH2A.X (CCRF-CEM cells [2]): neither dT nor OR0642 alone induced DNA damage or apoptosis
effect on leukemic progression [3]: did not show any antiproliferative effect
Whole body radiance of CCRF-CEM bearing mice ([3]; day 0 (before treatment), individual mice, 40 mg/kg): 1948 and 1585 and 1112 and 1289 and 1143 and 2120 and 1563 and 1766 and 1453
Whole body radiance of CCRF-CEM bearing mice ([3]; day 7, individual mice, 40 mg/kg): 5130 and 1470 and 1540 and 826 and 1990 and 2090 and 4750 and 1530 and 2610
Whole body radiance of CCRF-CEM bearing mice ([3]; day 14, individual mice, 40 mg/kg): 392000 and 24500 and 395000 and 489000 and 137000 and 327000 and 469000 and 291000 and 53900
hCD45+ populations determined by flux cytometry at day 21 of CCRF-CEM bearing mice ([3]; individual mice, 40 mg/kg): 216.1 and 194.2 and 86.4 and 80.1 and 74.9 and 211.8 and 120.7 and 113.3 and 112.2
Whole body radiance of CCRF-CEM bearing mice ([3]; day 21, individual mice (Figure 4b), 40 mg/kg): 2070000 and 4600000 and 1490000 and 6950000 and 1760000 and 5460000 and 5470000 and 5010000 and 3010000
Whole body radiance at day 21 of CCRF-CEM bearing mice ([3]; 40 mg/kg): 2180000 and 4850000 and 1550000 and 7340000 and 1840000 and 5680000 and 5590000 and 4590000 and 3150000
Survival days of CCRF-CEM bearing mice ([3]; individual mice, 40 mg/kg): 25 days and 26 days and 27 days

Cc1ccc(NC(=O)c2ccc(CN3CCN(C)CC3)cc2)cc1Nc1nc(-c2nccc(N)n2)cs1 [dCKi1]
Cell proliferation of the IL-3 dependent Ba/F3 cell line Mean (% prolif) (human c-KIT; 3.7 nM): 98.5%
Cell proliferation of the IL-3 dependent Ba/F3 cell line Mean (% prolif) (human c-KIT; 11 nM): 97.1%
Cell proliferation of the IL-3 dependent Ba/F3 cell line Mean (% prolif) (human c-KIT; 33 nM): 99.7%
Cell proliferation of the IL-3 dependent Ba/F3 cell line Mean (% prolif) (human c-KIT; 99 nM): 87.3%
Cell proliferation of the IL-3 dependent Ba/F3 cell line Mean (% prolif) (human c-KIT; 296 nM): 83.7%
Cell proliferation of the IL-3 dependent Ba/F3 cell line Mean (% prolif) (human c-KIT; 889 nM): 66.8%
Cell proliferation of the IL-3 dependent Ba/F3 cell line Mean (% prolif) (human c-KIT; 2667 nM): 24.0%
Cell proliferation of the IL-3 dependent Ba/F3 cell line Mean (% prolif) (human c-KIT; 8000 nM): 0.4%
Cell proliferation of the IL-3 dependent Ba/F3 cell line Mean (% prolif) (human c-KIT; 24000 nM): 0.35%
IC50 ratio of IL3/SCF (unspecific/c-KIT) (human c-KIT): 7.6

Cc1ccc(NC(=O)c2ccc(CN3CCN(C)CC3)cc2)cc1Nc1nc(-c2nc(N)cc(N)n2)cs1 [dCKi2, N-(3-((4-(4,6-diaminopyrimidin-2-yl)thiazol-2-yl)amino)-4-methylphenyl)-4-((4-methylpiperazin-1-yl)methyl)benzamide]
Cell proliferation of the IL-3 dependent Ba/F3 cell line Mean (% prolif) (human c-KIT; 3.7 nM): 97.2%
Cell proliferation of the IL-3 dependent Ba/F3 cell line Mean (% prolif) (human c-KIT; 11 nM): 96.0%
Cell proliferation of the IL-3 dependent Ba/F3 cell line Mean (% prolif) (human c-KIT; 33 nM): 97.1%
Cell proliferation of the IL-3 dependent Ba/F3 cell line Mean (% prolif) (human c-KIT; 99 nM): 91.8%
Cell proliferation of the IL-3 dependent Ba/F3 cell line Mean (% prolif) (human c-KIT; 296 nM): 94.5%
Cell proliferation of the IL-3 dependent Ba/F3 cell line Mean (% prolif) (human c-KIT; 889 nM): 86.6%
Cell proliferation of the IL-3 dependent Ba/F3 cell line Mean (% prolif) (human c-KIT; 2667 nM): 76.3%
Cell proliferation of the IL-3 dependent Ba/F3 cell line Mean (% prolif) (human c-KIT; 8000 nM): 48.8%
Cell proliferation of the IL-3 dependent Ba/F3 cell line Mean (% prolif) (human c-KIT; 24000 nM): 6.7%
IC50 ratio of IL3/SCF (unspecific/c-KIT) (human c-KIT): 2.7

Cc1cn([C@H]2C[C@H](O)[C@@H](CO)O2)c(=O)[nH]c1=O [dT, thymidine]
effect on nucleotide pools (CCRF-CEM cells [1]): increased the dTTP pool
DNA damage, γH2A.X (CCRF-CEM cells [2]): neither dT nor OR0642 alone induced DNA damage or apoptosis
effect on leukemic progression [3]: scarcely reduced leukemic progression
Whole body radiance of CCRF-CEM bearing mice ([3]; day 0 (before treatment), individual mice): 2430 and 1179 and 1269 and 2044 and 1251 and 1181 and 1090
Whole body radiance of CCRF-CEM bearing mice ([3]; day 7, individual mice): 1580 and 1140 and 2350 and 2150 and 1440 and 1960 and 2210
Whole body radiance of CCRF-CEM bearing mice ([3]; day 14, individual mice): 94100 and 37700 and 196000 and 167000 and 8080 and 182000 and 106000
hCD45+ populations determined by flux cytometry at day 21 of CCRF-CEM bearing mice ([3]; individual mice): 24.2 and 22.7 and 31.6 and 8.9 and 23.4 and 14.2
Whole body radiance of CCRF-CEM bearing mice ([3]; day 21, individual mice (Figure 4b)): 1150000 and 1620000 and 2390000 and 1910000 and 1880000 and 520000 and 953000
Whole body radiance at day 21 of CCRF-CEM bearing mice [3]: 1720000 and 2530000 and 2010000 and 1980000 and 545000 and 1000000 and 1210000
Survival days of CCRF-CEM bearing mice ([3]; individual mice): 28 days and 29 days and 30 days

— publication PMC10227015, “From a drug repositioning to a structure-based drug design approach to tackle acute lymphoblastic leukemia” (Nature Communications, 2023)
